This is an account of results in patent US6013672A, “Agonists of metabotropic glutamate receptors and uses thereof” (UAB Research Foundation, priority 1997, dated 2000).

Read-outs that look alike come from different tables or passages of the source.

Assay [1] has as its system hippocampal astrocytes. The assay can be described thus: Extracellular glutamate [Glu]o released by astrocyte cultures (bioluminescence). The note with it: for activity at 100 µM: read-out: % of control [Glu]0. It counts as cell-based, rat.
The subject of assay [2] is hippocampal astrocytes. Kind of assay: Removal of an exogenous glutamate challenge by astrocyte cultures, [Glu]o over time. The class given is cell-based, rat. The conditions noted are these: 500 μM for 24 hour before 50 μM glutamate challenge. On the procedure: The bioluminescence method for detection was used for glutamate in solution as described by Fosse et al. (1986) with only minor modifications. The glutamate-specific reagent mixture contained potassium phosphate (pH 7.0) 25 mM, Triton X-100 40 μg/ml, dithiothreitol 100 μM, Myristyl aldehyde 40 μM (Aldrich; Milwaukee, Wis.), β-NAD 2 mM, ADP 250 μM, FMN 2.5 μM, luciferase 40 μg/ml, NAD(P)H:FMN oxidoreductase 400 mU/ml, glutamate dehydrogenase 0.5 mg/ml. All experiments were performed with a Monolight 2010 luminomitor (Analytical Luminescence Lab; Ann Arbor, Mich.).
(§1) For experiments in which [Glu]o concentrations were assessed by the bioluminescence method, cells were maintained in glutamate-depleted medium in the presence or absence of the agonists/antagonist combination of interest. To assess chronic effects, glutamate analogues were applied for 24 hours unless indicated otherwise. After the incubation period, the stimulation media (containing drugs of interest) were aspirated and cells were washed twice with MEM and allowed to remain for 30 to 60 minutes in drug free MEM supplemented with 20 mM glucose prior to taking media samples for glutamate measurements. To assess acute drug effects, untreated cells were washed and the reagent of interest applied in glucose supplemented MEM. Cells were harvested in 0.3 N NaOH and neutralized with 0.3 N HCl. Aliquots were stored in -20° C. for protein and [Glu]i determination. Glutamate standards used for calibration were prepared in MEM (For [Glu]i in 0.15 N NaCl).
To delineate the role of mGluR receptors on [Glu]o levels, hippocampal astrocytes were challenged with 50 μM glutamate and cells that were pretreated with trans-ACPD were compared to control cultures (FIG. 2A). Control astrocytes rapidly remove glutamate from the medium, and after ≈3 hours, [Glu]o stabilized at values to 1 μM. […] Mean values were 0.96±0.1 μM in control astrocytes, as compared to 0.18±0.03 μM in trans-ACPD treated astrocytes.
Glutamate undoubtedly is the endogenous ligand for mGluRs. However, it was necessary to establish whether glutamate itself can induce the modulation in glutamate levels observed, and thus can mimic the modulatory effects observed with ACPD. These studies are difficult since, unlike ACPD, glutamate is also a substrate for the transporter, and therefore, is readily removed. Experiments were carried out in two ways, each yielding similar results. First, cells were preincubated for 24 hours with 100 μM glutamate, then washed and [Glu]o measured in MEM, or secondly, glutamate was directly applied in MEM and changes in [Glu]o were monitored.

For assay [3], the system named is hippocampal astrocytes. The assay can be described thus: 3H-D-aspartate (glutamate/aspartate) uptake in astrocytes. The class given is cell-based, rat. The note with it: for activation at 500 µM: Rattus norvegicus, Astrocyte, 0.5 mM, 24 hour exposure, average of 25 experiments, read-out: glutamate/aspartate uptake enhanced by. The protocol: Uptake procedures were essentially identical to those previously described (Kimelberg et al. 1989; Ye et al., 1996). Briefly, 5-10 minutes before assessing uptake, astrocytes were washed and kept in a solution containing (in mM): NaCl 122, KCl 3, MgSO4 0.4, KH2 PO4 1.2, NaHCO3 25, D-glucose 10, and CaCl2 1.3, at 37° C., bubbled with 5%/95% CO2 /O2. Then the cells were switched to the above solution supplemented with 0.1 mM D-aspartate and 0.4 μCi/ml ^3 H-D-aspartate. Glutamate/aspartate uptake was determined over a 10 or 30 minutes period and was terminated by three quick washes, twice with ice cold 0.29 M sucrose solution with 10 mM Tris Nitrate, 0.5 mM Ca(NO3)2, (pH 7.40 by NaOH) and then with ice cold PBS. Cells were then harvested after a 30 minute incubation in 0.3 N NaOH solution (37° C.) and ^3 H activity was determined in a liquid scintillation counter (Beckman). Total uptake was normalized to protein content to eliminate variability due to cell number. Protein levels were determined using the bicinchoninic acid (BCA) assay (Pierce; Rockford, Ill.).

Assay [4] concerns rat hippocampal brain slices. The assay can be described thus: THA-induced glutamate release in acute hippocampal brain sections. The class given is cell-based. The note with it: 400 min pretreatment. From the text: This was accomplished using THA, a heteroexchange drug that is also a substrate for the glutamate transporter. For each molecule of THA transported into the cell, one molecule of glutamate is released. Therefore, THA allows the induction of glutamate release.

In the next assay the test system is glial cells. The assay can be described thus: Glial glutamate uptake and extracellular glutamate with MPTP/MPP+ and t-ACPD. The class given is cell-based. On the procedure: The normally low glutamate levels in the brain are established and maintained in glial cells by non-vesicular uptake of glutamate through a Na^+ -dependent transporter (FIG. 14). Once taken up, glutamate can be converted to glutamine and recycled for neurotransmitter synthesis in neurons (FIG. 14). If glial cells in culture are exposed to high glutamate concentrations (e.g., 100 μM), they will remove it from the extracellular space and essentially "detoxify" the neuronal environment. […] Under those conditions, extracellular glutamate levels are elevated to 7 μM (FIG. 16), which is toxic to most surrounding neurons.
Impaired glial glutamate transport may contribute to the loss of dopaminergic neurons in Parkinson's disease. Thus, stimulation of this pathway would be neuroprotective. A drug and its receptor on glial cells was identified that allows enhanced glutamate detoxification. Specifically, trans-ACPD (trans-1-amino-1,3-cyclopentane dicarboxylic acid) (t-ACPD), a group II metabotropic glutamate receptor agonist, enhanced glial glutamate uptake (FIG. 17). It's actions were 2-fold; (i) it enhanced glutamate uptake by up to 80%, and (ii) it decreased non-specific release of glutamate, effectively trapping glutamate inside glial cells. In fact, the release of glutamate decreased to such a large extent that it almost made the transporter rectify, e.g. allowing only influx and preventing outflow of glutamate (FIG. 18). […] Using antibodies and further pharmacological studies, the receptor that is responsible for these effects has been identified as mGluR2/3.
In Parkinson's disease, it is believed that neurons may die of excitotoxic exposure to glutamate. The present invention determined that MPTP directly effects glutamate uptake into astrocytes (FIG. 21, top left). […] This increased release may be sufficient to explain some of the subsequent neurodegeneration.

Assay [5] has as its system hippocampal astrocytes. The assay can be described thus: Intracellular glutamate content [Glu]i of astrocytes. It counts as cell-based, rat. The conditions noted are these: Rattus norvegicus, Astrocyte, 24 h; highest dose used (1 mM), chronic treatment. On the procedure:
as §1, with “To assess chronic effects, glutamate analogues were applied for 24 hours unless indicated otherwise.” left out

In the case of `N[C@@]1(C(=O)O)CC[C@@H](C(=O)O)C1` (relative stereo) [trans-ACPD, trans-1-aminocyclopentane-1,3-dicarboxylic acid], the activity at 100 µM was determined as 46.3 ± 4.3% in the assay on hippocampal astrocytes [1] (Rattus norvegicus, Astrocyte, 432 h, cells P9, 18 days in vitro, 250 μM agonist); 12.4 ± 1.2% with hippocampal astrocytes [1] (Rattus norvegicus, Astrocyte, 432 h, cells P23, 18 days in vitro, 200 μM agonist); 23.1 ± 1.4% in the assay on hippocampal astrocytes [1] (Rattus norvegicus, Astrocyte, 456 h, cells P21, 19 days in vitro, 100 μM agonist); 20 ± 6.1% with hippocampal astrocytes [1] (Rattus norvegicus, Astrocyte, 624 h, cells P15, 26 days in vitro, 100 μM agonist); 78.2 ± 10.1% in the assay on hippocampal astrocytes [1] (Rattus norvegicus, Astrocyte, 672 h, cells P2, 28 days in vitro, 500 μM agonist); 60.6 ± 6.3% in the assay with hippocampal astrocytes [1] (Rattus norvegicus, Astrocyte, cells P0, 60 days in vitro, 100 μM agonist). The activity at 100 µM turned out to be 59.6 ± 10.1% in the assay with hippocampal astrocytes [1] (Rattus norvegicus, Astrocyte, cells P2, 25 days in vitro, 500 μM agonist); 51.3 ± 5.7% in the assay with hippocampal astrocytes [1] (Rattus norvegicus, Astrocyte, cells P2, 34 days in vitro, 100 μM agonist); 19.5 ± 2.7% with hippocampal astrocytes [1] (Rattus norvegicus, Astrocyte, cells P40, 31 days in vitro, 100 μM agonist). The “steady-state [Glu]o after glutamate challenge” value in the assay on hippocampal astrocytes [2] amounted to 0.18 ± 0.03 µM. Also, in the assay with hippocampal astrocytes [2], the “steady-state [Glu]o lower than in control cultures” value stood at 5 fold. Moreover, the activation at 500 µM with hippocampal astrocytes [3] is 31 ± 2.7%. The “reduction of THA-induced glutamate release” value in assay [4] was “≈ 40%”. The “enhancement of glutamate uptake” value with glial cells is listed as “up to 80%”. Besides, the “reduction of extracellular glutamate levels versus control” value in the assay on glial cells (neuron-glial cocultures (FIG. 19)) was “up to 100%”.

For the molecule `N[C@]1(C(=O)O)CC[C@H](C(=O)O)C1` [1R3S-ACPD, (1R,3S)-1-aminocyclopentane-1,3-dicarboxylic acid], in the assay with hippocampal astrocytes [1] (Rattus norvegicus, Astrocyte, 24 hours treatment, read-out: concentrations required to achieve any significant effect on glutamate release), the minimal effective concentration was greater than 50 µM. In the assay on hippocampal astrocytes [3] (KA or NMDA 1 mM, 24 hours), the “effect on aspartate uptake” value is given as “No significant effects”. Also, the activity at 1000 µM in the assay with hippocampal astrocytes [5] came out at 18.4 ± 0.9%.

Take `N[C@@]1(C(=O)O)CC[C@@H](C(=O)O)C1` [1S3R-ACPD, (1S,3R)-1-aminocyclopentane-1,3-dicarboxylic acid]: in the assay on hippocampal astrocytes [1], the “more effective than 1R3S-ACPD in reducing glutamate release” value was “≈ 100 fold”. Further, the “time to steady-state [Glu]o, acute application” value in the assay on hippocampal astrocytes [1] (50 μM in glutamate-free MEM) is reported as “≈ 2 hours”. Moreover, the “steady-state [Glu]o, acute application” value in the assay on hippocampal astrocytes [1] (50 μM in glutamate-free, glucose-supplemented MEM) fell in the range of 0.3 to 0.4 µM. In addition, the “THA-induced glutamate release lower in treated cells” value in the assay with hippocampal astrocytes [1] (100 μM for 24 hours pretreatment, any THA concentration) is on record as 3-5 fold. In addition, in the assay on hippocampal astrocytes [1] (100 μM, 24 h pretreatment, hypotonic 153 mOsm), the “swelling induced glutamate release” value is recorded as “inhibited swelling induced glutamate release to some extent”. Also, in the assay on hippocampal astrocytes [1] (200 μM), the “preincubation time for maximal effects” value is on record as “≈ 14 hours”. In the assay on hippocampal astrocytes [1] (200 μM, preincubation 0.5-36 hours), the “ET50 of attenuation of [Glu]o versus preincubation time” value is “≈ 1 hour”. Moreover, the “order of potency in mimicking ACPD effect on glutamate release” value with hippocampal astrocytes [1] (FIG. 7B) is “S-4CPG>1S3R-ACPD>L-CCG-I>1S3S-ACPD=QA”. Moreover, the activity at 200 µM with hippocampal astrocytes [1] (Rattus norvegicus, Astrocyte, 14 h, 200 μM, ≈14 hours preincubation, read-out: [Glu]o levels at maximal effect) is less than 30%. For the same molecule, the activity at 100 µM is 17.3 ± 1.2% in the assay on hippocampal astrocytes [1] (Rattus norvegicus, Astrocyte, 408 h, cells P22, 17 days in vitro, 100 μM agonist); 14.8 ± 4.3% in the assay on hippocampal astrocytes [1] (Rattus norvegicus, Astrocyte, 408 h, cells P22, 17 days in vitro, 200 μM agonist); 32.5 ± 4.7% with hippocampal astrocytes [1] (Rattus norvegicus, Astrocyte, 480 h, cells P16, 20 days in vitro, 10 μM agonist); 73.4 ± 2.9% in the assay with hippocampal astrocytes [1] (Rattus norvegicus, Astrocyte, 528 h, cells P2, 22 days in vitro, 100 μM agonist); 34.1 ± 5.6% in the assay on hippocampal astrocytes [1] (Rattus norvegicus, Astrocyte, 528 h, cells P13, 22 days in vitro, 100 μM agonist); 45.8 ± 11.9% in the assay with hippocampal astrocytes [1] (Rattus norvegicus, Astrocyte, 552 h, cells P9, 23 days in vitro, 100 μM agonist). In addition, the activity at 100 µM with hippocampal astrocytes [1] (Rattus norvegicus, Astrocyte, cells P2, 30 days in vitro, 100 μM agonist) stood at 66.9 ± 9.9%; in the assay with hippocampal astrocytes [1] (Rattus norvegicus, Astrocyte, cells P9, 36 days in vitro, 100 μM agonist) it was 66.5 ± 6.29%; in the assay on hippocampal astrocytes [1] (Rattus norvegicus, Astrocyte, cells P10, 32 days in vitro, 250 μM agonist), 24.1 ± 7.8%; in the assay on hippocampal astrocytes [1] (Rattus norvegicus, Astrocyte, cells P22, 40 days in vitro, 250 μM agonist), 29 ± 5.4%. Further, the EC50 in the assay on hippocampal astrocytes [1] (Rattus norvegicus, Astrocyte, 24 hours treatment, dose-effect curve, read-out: EC50, reduction of glutamate release) is 2 to 5 µM. In the assay with hippocampal astrocytes [1] (cells treated for 24 hours, then MEM), the “effect on [Glu]o / glutamate release” value is “reduce [Glu]o in a dose-dependent manner”. The activation at 500 µM with hippocampal astrocytes [3] amounted to 31 ± 2.7%. In the assay with hippocampal astrocytes [5], the activity at 1000 µM amounted to 85.2 ± 5.1%.
